# Measurements: ChEMBL document CHEMBL1201862, “PubChem BioAssay data set” (2004)
# Activity calls are given as the source filed them.
# What was measured:
# [1] = Shn3 3'UTR reporter inhibitors, dose response, cell-based, Clone20 osteoblasts, firefly luciferase, cherry-picked (AID 624132); assay type: functional;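 note: firefly luciferase luminescence from reporter carrying the Shn3 3'UTR in osteoblasts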
# [2] = inhibitors of intracellular T. cruzi replication, confirmation, NIH3T3 host cells, beta-gal luminescence (AID 2044); assay type: functional, cell-based;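 note: intracellular parasites grown in NIH/3T3 mouse fibroblasts as host cells; luminescent beta-galactosidase reporter signal from transgenic T. cruzi replicating inside host cells; inhibitors lower the luminescence signal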
# [3] = control 3'UTR Renilla luciferase suppression, dose response, counter-screen for Shn3 inhibitor project, cell-based, Clone20-Shn3RL, cherry-picked (AID 624133); assay type: functional
# [4] = HepG2 cell cytotoxicity, dose response, cytotoxicity control for Shn3 inhibitor project, CellTiter-Glo, cherry-picked (AID 624134); assay type: functional, cell-based
# [5] = cytotoxicity toward NIH3T3 fibroblasts, dose response, counter-screen, cell-based, ATP luminescence, mouse fibroblasts (AID 2010); assay type: functional;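 note: cells exposed to compound for about 90 hours before reading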
# [6] = target: T1, Corticotropin-releasing factor receptor 2/Corticotropin-releasing factor-binding protein (Homo sapiens, UniProt P24387+Q13324); test: activators of CRF receptor 2 with binding protein – uHTS hits, confirmation (AID 602473); assay type: functional; details: read-out: EC50_Mean
# T1 sequence (Q13324 whole entry): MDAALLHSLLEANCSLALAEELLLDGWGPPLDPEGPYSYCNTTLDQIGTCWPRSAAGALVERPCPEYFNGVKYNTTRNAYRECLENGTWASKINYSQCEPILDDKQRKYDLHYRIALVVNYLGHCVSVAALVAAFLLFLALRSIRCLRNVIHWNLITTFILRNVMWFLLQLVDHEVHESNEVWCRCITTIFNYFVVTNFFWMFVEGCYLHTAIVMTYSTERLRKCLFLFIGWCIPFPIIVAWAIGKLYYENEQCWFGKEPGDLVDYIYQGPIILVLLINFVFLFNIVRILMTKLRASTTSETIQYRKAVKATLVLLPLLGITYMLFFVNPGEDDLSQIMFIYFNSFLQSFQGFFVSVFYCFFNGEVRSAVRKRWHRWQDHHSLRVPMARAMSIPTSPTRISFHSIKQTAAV
# T1 sequence (P24387 whole entry): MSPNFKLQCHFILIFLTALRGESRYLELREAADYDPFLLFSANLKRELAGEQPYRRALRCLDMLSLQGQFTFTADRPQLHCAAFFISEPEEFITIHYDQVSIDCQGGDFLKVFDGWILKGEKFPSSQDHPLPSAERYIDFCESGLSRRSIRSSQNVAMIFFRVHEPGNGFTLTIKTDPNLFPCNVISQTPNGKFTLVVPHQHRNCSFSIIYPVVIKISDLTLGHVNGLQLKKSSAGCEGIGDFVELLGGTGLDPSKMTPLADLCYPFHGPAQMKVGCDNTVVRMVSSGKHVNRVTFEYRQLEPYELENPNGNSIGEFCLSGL
# [7] = target: T2, Zinc finger protein mex-5 (Caenorhabditis elegans, UniProt Q9XUB2); test: MEX-5/TCR-2 RNA interaction inhibitors, dose response, biochemical, C. elegans, fluorescence polarization (AID 1960)
# T2 sequence (Q9XUB2 whole entry): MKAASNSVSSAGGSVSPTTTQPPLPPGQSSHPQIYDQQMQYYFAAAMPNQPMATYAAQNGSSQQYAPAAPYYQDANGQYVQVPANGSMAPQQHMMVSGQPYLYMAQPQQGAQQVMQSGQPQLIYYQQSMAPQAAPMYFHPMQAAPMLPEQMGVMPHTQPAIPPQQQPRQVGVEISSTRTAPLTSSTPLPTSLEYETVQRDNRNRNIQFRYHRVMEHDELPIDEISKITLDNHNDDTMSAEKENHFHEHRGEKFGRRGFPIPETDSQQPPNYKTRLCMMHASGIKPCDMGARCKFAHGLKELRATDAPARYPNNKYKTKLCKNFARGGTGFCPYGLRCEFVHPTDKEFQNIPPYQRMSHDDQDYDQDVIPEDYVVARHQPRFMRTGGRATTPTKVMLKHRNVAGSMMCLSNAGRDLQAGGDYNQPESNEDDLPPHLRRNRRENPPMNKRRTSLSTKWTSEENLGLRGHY
# cells = assay type: functional
# [8] = target: T3, RNA-binding protein pos-1 (Caenorhabditis elegans, UniProt G5EF15); test: inhibitors of POS-1/mex-3 RNA binding, dose response, biochemical, fluorescence polarization (AID 1964);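 note: purified POS-1 fused to maltose binding protein made in E. coli; potency of compounds blocking POS-1 binding to fluorescent RNA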
# T3 sequence (G5EF15 whole entry): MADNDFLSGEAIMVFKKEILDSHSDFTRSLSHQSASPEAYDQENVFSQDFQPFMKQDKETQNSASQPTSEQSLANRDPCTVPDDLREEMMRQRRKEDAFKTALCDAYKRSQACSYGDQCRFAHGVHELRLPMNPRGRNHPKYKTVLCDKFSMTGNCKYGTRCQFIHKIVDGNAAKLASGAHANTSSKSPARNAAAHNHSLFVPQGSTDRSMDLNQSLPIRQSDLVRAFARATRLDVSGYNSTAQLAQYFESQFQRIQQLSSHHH
# [9] = target: T4, Polyadenylate-binding protein 1 (Homo sapiens, UniProt P11940); test: PABP1 MLLE–PAM2 binding inhibitor potency, dose response, biochemical, fluorescence polarization, FITC-PAM2 peptide (AID 602259); assay type: functional; details: read-out: IC50_Mean
# T4 sequence (P11940 whole entry): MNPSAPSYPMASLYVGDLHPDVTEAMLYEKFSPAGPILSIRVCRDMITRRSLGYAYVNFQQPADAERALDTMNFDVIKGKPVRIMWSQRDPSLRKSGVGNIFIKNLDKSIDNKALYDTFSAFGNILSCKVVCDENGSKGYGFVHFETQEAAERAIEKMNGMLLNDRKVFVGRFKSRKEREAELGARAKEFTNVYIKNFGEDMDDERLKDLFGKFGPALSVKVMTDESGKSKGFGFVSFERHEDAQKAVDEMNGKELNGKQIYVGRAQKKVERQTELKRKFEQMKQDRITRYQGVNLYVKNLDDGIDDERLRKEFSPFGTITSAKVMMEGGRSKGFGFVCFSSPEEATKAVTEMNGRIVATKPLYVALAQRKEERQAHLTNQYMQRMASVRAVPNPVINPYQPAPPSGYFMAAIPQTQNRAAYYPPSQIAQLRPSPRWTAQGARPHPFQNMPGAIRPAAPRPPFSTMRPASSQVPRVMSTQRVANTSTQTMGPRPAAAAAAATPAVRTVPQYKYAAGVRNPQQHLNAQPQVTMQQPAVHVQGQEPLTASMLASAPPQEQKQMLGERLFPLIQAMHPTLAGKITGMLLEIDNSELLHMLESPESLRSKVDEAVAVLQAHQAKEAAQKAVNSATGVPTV
# [10] = target: T4, Polyadenylate-binding protein 1; test: PABP1 MLLE–PAM2 interaction inhibitors, dose response, miRNA deadenylation inhibitor project, biochemical, fluorescence polarization, Cy5-PAM2 peptide, secondary (AID 602260); assay type: functional; details: read-out: IC50_Mean
# [11] = inhibitors of HIV Env-driven cell fusion, dose response, cherry-pick (AID 652057); assay type: functional, cell-based
# Protein skinhead-1 = target: T5, Protein skinhead-1 (Caenorhabditis elegans, UniProt P34707); assay type: functional
# T5 sequence (P34707 whole entry): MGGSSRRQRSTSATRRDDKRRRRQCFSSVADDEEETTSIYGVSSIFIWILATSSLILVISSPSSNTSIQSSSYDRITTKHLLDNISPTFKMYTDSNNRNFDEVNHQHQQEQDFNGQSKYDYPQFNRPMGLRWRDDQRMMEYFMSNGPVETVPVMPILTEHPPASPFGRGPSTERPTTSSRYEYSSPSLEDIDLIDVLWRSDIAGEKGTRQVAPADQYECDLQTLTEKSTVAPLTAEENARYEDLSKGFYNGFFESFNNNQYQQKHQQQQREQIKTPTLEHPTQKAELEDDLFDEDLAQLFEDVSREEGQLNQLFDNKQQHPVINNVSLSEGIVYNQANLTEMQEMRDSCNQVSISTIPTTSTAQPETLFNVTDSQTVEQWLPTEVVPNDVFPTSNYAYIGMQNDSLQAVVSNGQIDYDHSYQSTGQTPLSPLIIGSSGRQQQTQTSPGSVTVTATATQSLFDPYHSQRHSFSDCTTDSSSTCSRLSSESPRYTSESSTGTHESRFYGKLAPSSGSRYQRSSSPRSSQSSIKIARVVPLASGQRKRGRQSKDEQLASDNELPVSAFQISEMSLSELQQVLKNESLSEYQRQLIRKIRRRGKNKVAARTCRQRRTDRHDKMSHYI
# [12] = HEp-2 cell cytotoxicity, dose response, cytotoxicity control for RSV inhibitor project, HTS (AID 2410); assay type: functional; details: human respiratory syncytial virus
# [13] = target: T6, Heat shock factor protein 1 (Mus musculus, UniProt P38532); test: HSF1 potentiators in luciferase reporter cells, confirmation, cell-based, NIH3T3, luminescence, dose retest (AID 435004); assay type: functional;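 note: stress induced by proteasome inhibitor MG132 added 30 min after compound; luciferase reporter driven by HSF1 response element in NIH3T3 cells; actives raise luminescence as potentiators of the MG132 stress response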
# T6 sequence (P38532 whole entry): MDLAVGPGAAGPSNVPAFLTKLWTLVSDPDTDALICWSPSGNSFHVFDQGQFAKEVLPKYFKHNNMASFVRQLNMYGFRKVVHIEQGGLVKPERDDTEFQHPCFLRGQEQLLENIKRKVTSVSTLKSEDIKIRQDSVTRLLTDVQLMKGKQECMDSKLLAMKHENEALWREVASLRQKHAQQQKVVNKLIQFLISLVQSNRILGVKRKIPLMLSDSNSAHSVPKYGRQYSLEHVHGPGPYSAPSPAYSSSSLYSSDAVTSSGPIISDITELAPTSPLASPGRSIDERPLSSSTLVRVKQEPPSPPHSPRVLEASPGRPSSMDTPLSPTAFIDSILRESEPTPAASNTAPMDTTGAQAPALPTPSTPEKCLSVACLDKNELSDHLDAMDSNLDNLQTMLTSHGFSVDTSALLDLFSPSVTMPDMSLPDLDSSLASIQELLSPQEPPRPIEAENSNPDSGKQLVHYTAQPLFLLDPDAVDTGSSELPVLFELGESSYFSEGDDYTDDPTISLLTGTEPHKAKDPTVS
# [14] = target: T7, High affinity choline transporter 1 (Homo sapiens, UniProt Q9GZV3); test: CHT inhibitors, dose response, cell-based, 5-point CRC, membrane potential dye (AID 504840); assay type: functional
# T7 sequence (Q9GZV3 whole entry): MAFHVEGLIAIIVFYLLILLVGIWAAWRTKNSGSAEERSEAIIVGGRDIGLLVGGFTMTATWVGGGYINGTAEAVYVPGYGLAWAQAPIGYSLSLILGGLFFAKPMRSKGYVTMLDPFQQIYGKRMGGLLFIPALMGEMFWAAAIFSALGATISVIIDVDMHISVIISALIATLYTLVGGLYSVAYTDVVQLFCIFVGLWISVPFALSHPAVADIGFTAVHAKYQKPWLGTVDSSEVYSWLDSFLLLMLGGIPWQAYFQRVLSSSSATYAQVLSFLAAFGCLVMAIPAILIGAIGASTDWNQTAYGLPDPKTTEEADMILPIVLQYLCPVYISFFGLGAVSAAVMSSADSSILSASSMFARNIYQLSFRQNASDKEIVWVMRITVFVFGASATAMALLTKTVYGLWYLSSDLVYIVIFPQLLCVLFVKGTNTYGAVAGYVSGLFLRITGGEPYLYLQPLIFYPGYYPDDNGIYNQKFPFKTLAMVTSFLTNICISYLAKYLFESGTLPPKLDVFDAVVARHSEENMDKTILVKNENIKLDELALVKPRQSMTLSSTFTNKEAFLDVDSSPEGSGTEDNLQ
structure (smiles),measurement,setting,value
CN(c1cccc(NC(=O)CN(c2ccc(C34CC5CC(CC(C5)C3)C4)cc2)S(C)(=O)=O)c1)S(C)(=O)=O,AC50,[1],7.58 µM (active)
same,EC50,[2],1.6 µM (active)
same,AC50,[3],7.86 µM (active)
same,AC50,[4],31.2 µM (active)
same,EC50,[5],7.81 µM (active)
Cc1ccc(/C(O)=C/c2nc3ccccc3oc2=O)cc1,EC50,[6],11.4 µM (active)
same,EC50,[7],> 300 µM (inconclusive)
same,IC50,cells,4.72 µM (active)
same,EC50,[8],> 300 µM (inconclusive)
OC1(c2ccc(Br)cc2)C[N+](c2ccccc2)=C2SCCN21 (centres undefined),IC50,[9],> 66 µM (inactive)
same,IC50,[10],> 66 µM (inactive)
CCCCN(c1nc2ccccc2nc1Cl)S(=O)(=O)c1ccc(C)cc1,AC50,[1],7.22 µM (active)
same,AC50,[3],30.7 µM (active)
same,AC50,[4],> 70 µM (inactive)
C[C@@H]1CN([C@H](C)CO)C(=O)c2cc(NS(=O)(=O)c3ccc(F)cc3)ccc2O[C@H]1CN(C)Cc1ccc(C(F)(F)F)cc1,AC50,[11],33.9 µM (active)
Cc1cccc(NC2SC(=O)NC2=O)c1 (centres undefined),IC50,[9],> 66 µM (inactive)
same,IC50,[10],> 66 µM (inactive)
Clc1ccc(OCCSc2ncccn2)cc1,IC50,Protein skinhead-1,43.9 µM (active)
COc1ccc(N2CCN(C(=O)CN3CCN(c4nc(-c5ccc(F)cc5)cs4)CC3)CC2)cc1,AC50,[1],1.81 µM (active)
same,AC50,[3],1.16 µM (active)
same,AC50,[4],58 µM (active)
CC(=O)c1cccc(NC(=O)N2CCCC2C(=O)Nc2c(C)cccc2C)c1 (centres undefined),IC50,Protein skinhead-1,> 100 µM (inactive)
O=C(O)c1cnn(-c2nc(-c3cccc([N+](=O)[O-])c3)cs2)c1C(F)(F)F,CC50,[12],37.9 µM (active)
same,EC50,[13],> 260 µM (inactive)
same,IC50,[14],11 µM (active)
FC(F)(F)c1cnc2c(-c3ccc(Cl)cc3Cl)noc2c1,IC50,Protein skinhead-1,> 100 µM (inactive)
NC(=O)COC(=O)c1ccc(Cl)c(S(=O)(=O)N2CCN(c3ccc(F)cc3)CC2)c1,IC50,[14],13.8 µM (active)
COc1ccc(NC(=S)N/N=C2\CC(C)(C)Oc3ccc(OC)cc32)cc1,IC50,[9],> 66 µM (inactive)
same,IC50,[10],> 66 µM (inactive)
